One molecule from US12351574B2, “Selective ligands for modulation of GIRK channels” (Northeastern University, priority 2018, dated 2025) can be followed below.

The assay deals with T1, GIRK1-S65Y with GIRK2 (UniProt P48542+P48549, S65Y).
T1 construct: expressed in transfected cells; host or cells: HEK293 cells
T1 sequence (P48549 1-501 S65Y): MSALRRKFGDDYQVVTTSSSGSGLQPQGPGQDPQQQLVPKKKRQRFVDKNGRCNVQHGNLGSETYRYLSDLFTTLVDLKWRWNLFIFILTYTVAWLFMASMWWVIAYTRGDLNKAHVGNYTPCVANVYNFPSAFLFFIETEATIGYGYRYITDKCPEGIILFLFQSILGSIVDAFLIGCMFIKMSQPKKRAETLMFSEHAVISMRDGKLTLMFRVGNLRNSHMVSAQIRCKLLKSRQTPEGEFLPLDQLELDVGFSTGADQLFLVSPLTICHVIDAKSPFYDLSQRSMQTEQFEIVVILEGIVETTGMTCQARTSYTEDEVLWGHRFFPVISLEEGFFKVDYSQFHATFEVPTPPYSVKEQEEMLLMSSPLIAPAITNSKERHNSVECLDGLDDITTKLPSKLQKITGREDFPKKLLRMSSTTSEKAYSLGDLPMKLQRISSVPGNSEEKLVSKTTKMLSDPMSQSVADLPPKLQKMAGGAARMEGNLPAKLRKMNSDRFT
T1 sequence (P48542 1-425): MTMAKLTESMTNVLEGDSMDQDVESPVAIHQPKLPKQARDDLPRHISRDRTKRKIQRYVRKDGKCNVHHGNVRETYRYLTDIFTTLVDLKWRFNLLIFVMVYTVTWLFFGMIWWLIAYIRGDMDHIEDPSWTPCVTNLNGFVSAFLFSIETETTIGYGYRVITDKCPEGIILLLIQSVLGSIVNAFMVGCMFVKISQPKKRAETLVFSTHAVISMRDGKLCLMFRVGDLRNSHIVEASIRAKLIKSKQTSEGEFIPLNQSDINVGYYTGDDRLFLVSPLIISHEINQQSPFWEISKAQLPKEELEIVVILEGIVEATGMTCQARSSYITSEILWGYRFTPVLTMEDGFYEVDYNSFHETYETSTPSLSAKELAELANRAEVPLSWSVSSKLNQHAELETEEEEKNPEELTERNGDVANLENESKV
In words: 5-ptaseOCRL current inhibition, GIRK1/2 channels containing GIRK1-S65Y subunits. The format is cell-based, human GIRK1, mouse GIRK2. The conditions noted are these: 10 μM GAT1508. The text has this:
To identify changes in specific channel residue interactions with PIP2 upon ligand binding, the inventors carried out Principal Component Analysis (PCA) in the presence and absence of ML297 and GAT1508. The PCA analysis implicated changes in the slide (or interfacial) helix interactions with PIP2 upon ligand binding. Polar interactions could be formed between GIRK2^FD(Y76) and GIRK4^FD(Y71) with the P(4,5) of PIP2 when ML297 was bound to the same subunit (FIG. 39 top, FIG. 40). In contrast, when GAT1508 was bound this interaction was retained by GIRK2^FD but not GIRK4^FD (FIG. 39 bottom, FIG. 40). The corresponding GIRK1(S65) residue (FIG. 41, highlighted with vertical rectangle) could be serving the same role in stabilizing the phosphoinositol headgroup for interactions with non-ligand binding subunits. As polar residues, both Ser and Tyr could form H-bond interactions with PIP2. […]
Patch-clamp recording: Whole-cell currents were recorded with an Axopatch 200B amplifier (Molecular Devices) controlled via a USB-interface (National Instruments) using WinWCP software (University of Strathclyde). […] The barium-sensitive component of the current, observed when cells were perfused with the high-K^+ buffer, was analyzed and was determined by perfusing 5 mM BaCl2 in the high-K^+ buffer at the end of each experiment. […]

Turning to `Cc1cc(NC(=O)Nc2ccc(Br)s2)n(-c2ccccc2)n1` [GAT1508, 1-(5-bromothiophen-2-yl)-3-(3-methyl-1-phenyl-1H-pyrazol-5-yl)urea], the “protection of current from 5-ptaseOCRL (in words)” value is given as “no additional effect”.
